Data as given in patent US12371454B2, “Cyclic peptide compound having Kras inhibitory action” (priority 2019, dated 2025).
Starred links: 1 amine or outer side, 2 acyl side, 3 side chain; linkers in the order of their positions; H or OH if unused. Positions of bridges follow the written chain, without caps; N, C: chain ends. Non-standard residues stand in square brackets, D forms with d. Residues, ends and D or L forms follow the SMILES beside them. *: point of attachment. hPhe(3-Cl-4-CF3) = N[C@@H](CCc1ccc(C(F)(F)F)c(Cl)c1)C(=O)O; hPhe(3-F,4-CF3) = N[C@@H](CCc1ccc(C(F)(F)F)c(F)c1)C(=O)O; NMedβ3hAla = C[C@H](CC(=O)[*:2])N(C)[*:1]; NMeGly(cPent) = CN[C@H](C(=O)O)C1CCCC1; NMeCha = CN[C@@H](CC1CCCCC1)C(=O)O; Gly(N-(CH2)2OEt) = CCOCCNCC(=O)O; NMeChg = CN[C@H](C(=O)O)C1CCCCC1; NMeI = CC[C@H](C)[C@H](NC)C(=O)O; d(β3hL) = CC(C)C[C@@H](N)CC(=O)O; NMeD = CN[C@@H](CC(=O)O)C(=O)O; NMeL = CN[C@@H](CC(C)C)C(=O)O; NMeV = CN[C@H](C(=O)O)C(C)C; d(β3hA) = C[C@@H](N)CC(=O)O; NMeS = CN[C@@H](CO)C(=O)O; Morpholide = C1CN(*)CCO1; NMeA = CN[C@@H](C)C(=O)O; Piperidide = C1CCN(*)CC1; Pyrrolidide = C1CCN(*)C1; Ac5c = NC1(C(=O)O)CCCC1; Aze = O=C(O)[C@@H]1CCN1; Cyclobutyl = C1CC(*)C1; Sar = CNCC(=O)O; Propyl = CCC*

Test system: Human pancreatic cancer cell line AsPC-1
Assay: Measurement of AsPC-1 cell growth inhibition (AsPC-1 CGI)
Type: cell-based
Conditions: 96 h
Procedure, shortened: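 AsPC-1 cells in 15% FBS RPMI-1640 were exposed to test compound for 96 hours at 37° C, with CellTiter-Glo as endpoint.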

SMILES | IC50
CC[C@H](C)[C@@H]1NC(=O)[C@H](CC(C)C)N(C)C(=O)C[C@@H](CC(C)C)NC(=O)[C@H]([C@@H](C)CC)N(C)C(=O)C2(CCCC2)NC(=O)[C@@H]2CCCN2C(=O)[C@H](CCc2ccc(C(F)(F)F)c(Cl)c2)NC(=O)CN(C)C(=O)[C@H](CC2CCCCC2)N(C)C(=O)[C@@H]2CCN2C(=O)[C@H](C)N(C)C1=O [Compound 798] (cyclo([Ac5c][NMeI][d(β3hL)][NMeL]I[NMeA][Aze][NMeCha][Sar][hPhe(3-Cl-4-CF3)]P)) | 0.1 to 0.5 µM
CC[C@H](C)[C@@H]1NC(=O)[C@H](CC(C)C)N(C)C(=O)C[C@@H](C(=O)N2CCCCC2)N(C)C(=O)[C@H]([C@@H](C)CC)N(C)C(=O)C2(CCCC2)NC(=O)[C@@H]2CCCN2C(=O)[C@H](CCc2ccc(C(F)(F)F)c(Cl)c2)NC(=O)CN(C)C(=O)[C@H](C2CCCC2)N(C)C(=O)[C@@H]2CCN2C(=O)[C@H](C)N(C)C1=O [Compound 807] ([NMeL]I[NMeA][Aze][NMeGly(cPent)][Sar][hPhe(3-Cl-4-CF3)]P[Ac5c][NMeI][NMeD]-Piperidide; lactam N-11) | 0.02 to 0.05 µM
CCOCCN1CC(=O)NC2(CCCC2)C(=O)N(C)[C@@H](C2CCCCC2)C(=O)N(C)[C@H](C(=O)N2CCCCC2)CC(=O)N(C)[C@@H](CC(C)C)C(=O)N[C@@H]([C@@H](C)CC)C(=O)N(C)CC(=O)N(C)CC(=O)N(C)[C@@H](CC2CCCCC2)C(=O)N(C)CC(=O)N[C@@H](CCc2ccc(C(F)(F)F)c(Cl)c2)C1=O [Compound 872] ([NMeL]I[Sar][Sar][NMeCha][Sar][hPhe(3-Cl-4-CF3)][Gly(N-(CH2)2OEt)][Ac5c][NMeChg][NMeD]-Piperidide; lactam N-11) | 0.1 to 0.5 µM
CC[C@H](C)[C@@H]1NC(=O)[C@H](C2CCCCC2)N(C)C(=O)C[C@@H](C)NC(=O)[C@H](C(C)C)N(C)C(=O)C2(CCCC2)NC(=O)[C@@H]2CCCN2C(=O)[C@H](CCc2ccc(C(F)(F)F)c(Cl)c2)NC(=O)CN(C)C(=O)[C@H](CC2CCCCC2)N(C)C(=O)[C@@H]2CCN2C(=O)[C@H](C)N(C)C1=O [Compound 873] (cyclo([Ac5c][NMeV][d(β3hA)][NMeChg]I[NMeA][Aze][NMeCha][Sar][hPhe(3-Cl-4-CF3)]P)) | 0.1 to 0.5 µM
CC[C@H](C)[C@@H]1NC(=O)[C@H](CC(C)C)N(C)C(=O)C[C@@H](C(=O)N2CCCCC2)N(C)C(=O)[C@H]([C@@H](C)CC)N(C)C(=O)C2(CCCC2)NC(=O)[C@@H]2CCCN2C(=O)[C@H](CCc2ccc(C(F)(F)F)c(Cl)c2)NC(=O)CN(C)C(=O)[C@H](COC2CCC2)N(C)C(=O)[C@@H]2CCN2C(=O)[C@H](C)N(C)C1=O [Compound 885] ([NMeL]I[NMeA][Aze][NMeS](Cyclobutyl)[Sar][hPhe(3-Cl-4-CF3)]P[Ac5c][NMeI][NMeD]-Piperidide; lactam N-11) | 0.02 to 0.05 µM

Now from value to molecule:

IC50 | SMILES
0.02 to 0.05 µM | CC[C@H](C)[C@@H]1NC(=O)[C@H](CC(C)C)N(C)C(=O)C[C@@H](C(=O)N2CCOCC2)N(C)C(=O)[C@H]([C@@H](C)CC)N(C)C(=O)C2(CCCC2)NC(=O)[C@@H]2CCCN2C(=O)[C@H](CCc2ccc(C(F)(F)F)c(F)c2)NC(=O)CN(C)C(=O)[C@H](CC2CCCCC2)N(C)C(=O)[C@@H]2CCN2C(=O)[C@H](C)N(C)C1=O [Compound 790] ([NMeL]I[NMeA][Aze][NMeCha][Sar][hPhe(3-F,4-CF3)]P[Ac5c][NMeI][NMeD]-Morpholide; lactam N-11)
0.02 to 0.05 µM | CCCOC[C@H]1C(=O)N(C)CC(=O)N[C@@H](CCc2ccc(C(F)(F)F)c(F)c2)C(=O)N2CCC[C@H]2C(=O)NC2(CCCC2)C(=O)N(C)[C@@H]([C@@H](C)CC)C(=O)N(C)[C@H](C(=O)N2CCOCC2)CC(=O)N(C)[C@@H](CC(C)C)C(=O)N[C@@H]([C@@H](C)CC)C(=O)N(C)[C@@H](C)C(=O)N2CC[C@H]2C(=O)N1C [Compound 827] ([NMeL]I[NMeA][Aze][NMeS](Propyl)[Sar][hPhe(3-F,4-CF3)]P[Ac5c][NMeI][NMeD]-Morpholide; lactam N-11)
0.05 to 0.1 µM | CC[C@H](C)[C@@H]1NC(=O)[C@H](CC(C)C)N(C)C(=O)C[C@@H](C)N(C)C(=O)[C@H]([C@@H](C)CC)N(C)C(=O)C2(CCCC2)NC(=O)[C@@H]2CCCN2C(=O)[C@H](CCc2ccc(C(F)(F)F)c(F)c2)NC(=O)CN(C)C(=O)[C@H](CC2CCCCC2)N(C)C(=O)[C@@H]2CCN2C(=O)[C@H](C)N(C)C1=O [Compound 859] (cyclo([Ac5c][NMeI][NMedβ3hAla][NMeL]I[NMeA][Aze][NMeCha][Sar][hPhe(3-F,4-CF3)]P))
0.02 to 0.05 µM | CC[C@H](C)[C@@H]1NC(=O)[C@H](CC(C)C)N(C)C(=O)C[C@@H](C(=O)N2CCCC2)N(C)C(=O)[C@H]([C@@H](C)CC)N(C)C(=O)C2(CCCC2)NC(=O)[C@@H]2CCCN2C(=O)[C@H](CCc2ccc(C(F)(F)F)c(F)c2)NC(=O)CN(C)C(=O)[C@H](CC2CCCCC2)N(C)C(=O)[C@@H]2CCN2C(=O)[C@H](C)N(C)C1=O [Compound 868] ([NMeL]I[NMeA][Aze][NMeCha][Sar][hPhe(3-F,4-CF3)]P[Ac5c][NMeI][NMeD]-Pyrrolidide; lactam N-11)
